Columns and labels:
SHP2cat = target: T1, SHP2cat (Homo sapiens, UniProt Q06124); experiment: Mass spectrometry test for inhibitor:protein adducts; settings: SHP2cat 5 μM, inhibitor 100 μM, 1-60 min
T1 construct: the SHP2 catalytic domain (SHP2cat; residues 248–527); made in house
T1 sequence (Q06124 248-527): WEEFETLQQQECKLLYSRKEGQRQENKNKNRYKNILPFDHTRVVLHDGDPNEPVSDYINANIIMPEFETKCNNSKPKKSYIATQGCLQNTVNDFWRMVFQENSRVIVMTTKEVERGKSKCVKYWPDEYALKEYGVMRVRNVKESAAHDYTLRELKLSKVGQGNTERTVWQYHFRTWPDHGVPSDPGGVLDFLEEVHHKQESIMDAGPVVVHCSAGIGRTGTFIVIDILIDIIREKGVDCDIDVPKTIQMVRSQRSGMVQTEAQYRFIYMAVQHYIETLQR
Description: PTPs contain a highly nucleophilic cysteine that is essential for catalytic activity but is susceptible to oxidation and covalent modifications, which abrogate its nucleophilic function and phosphatase activity ([26]). Because the methylenebenzothiophenone moiety of our inhibitors could potentially act as a Michael acceptor and thus covalently bind to the catalytic cysteine, we tested whether the observed inhibition of SHP2 was dependent on the preincubation time of inhibitor and enzyme. An irreversible covalent inhibitor may show time-dependent inhibition, with increased potency at longer incubation times. Conversely, the potency of a noncovalent inhibitor is expected to be insensitive to the time it is incubated with the enzyme. To test for time-dependent inhibition, SBI-2130 at ten different concentrations was preincubated with SHP2-E76K for 1, 5, 10, 20, or 60 min, before the DiFMUP substrate was added to the reaction mixture and initial rates were recorded (Fig. 3C). […] In addition, we used mass spectrometry to test whether inhibitor:protein adducts are being formed. Specifically, we incubated SHP2cat (5 μM) with SBI-4668 (100 μM) in assay buffer for various times (1, 5, 20, and 60 min) before trypsin proteolysis and subsequent mass spectrometry analysis. […] Finally, we performed a jump-dilution experiment to test for irreversible inhibition of SHP2. […]

[1] = test system: phospho-ERK1/2 (p-ERK1/2) in MOLM-13 AML cells; experiment: p-ERK1/2 immunoblot, MOLM-13; assay type: cell-based; settings: SBI-4668 3, 10, 30 μM, RMC-4550 1 μM
Description: Because SHP2 activity is critical for ERK activation, we used phospho-ERK1/2 (p-ERK1/2) as a more direct readout of SHP2 inhibitor efficacy. […] This p-ERK rebound in MOLM-13 cells treated with RMC-4550 is reminiscent of previously reported data from human hepatoma Hep3B cells treated with SHP099 ([34]). We also tested the effects of SBI-4668 or RMC-4550 on two patient-derived AML samples (Fig. 4F).
Cells cultured in RPMI medium were treated as indicated in the legends to the figures. Total protein extracts were prepared in modified radioimmunoprecipitation assay lysis buffer (25 mM Tris–HCl, pH 7.4, 10% glycerol, 0.2% Triton X-100, 150 mM NaCl, 2 mM Na3VO4, and 1 mM EDTA) containing a protease inhibitor cocktail (Roche Applied Science). Equal amounts of protein were separated on 4 to 12% (p-ERK1/2 blots) or 4 to 20% (SHP2 blots) Bis–Tris gels by SDS-PAGE and transferred to nitrocellulose (p-ERK1/2 blots) or 0.2 μm polyvinylidene fluoride (SHP2 blots) membranes. Membranes were blocked in 5% dry milk (Bio-Rad) in Tris-buffered saline–Tween-20 (TBS–T) (0.1% v/v) for 1 h at RT. Protein-bound membranes were incubated with indicated primary antibody overnight at 4 °C. After washing three times with TBS-T, membranes were incubated for 1 h with horseradish peroxidase–conjugated secondary antibody and then visualized by an ECL Prime detection system (GE Healthcare). Immunoblotting experiments were carried out at least three times, and representative images are shown. Densitometric quantitation of immunoblots was performed using Image Studio Lite Software (LI-COR). Changes of phosphorylated ERK1/2 to total ERK1/2 ratios are expressed as percentage of the vehicle-treated controls. The following antibodies were used: Phospho-Erk1/2 Ab (catalog no.: 9101S; Cell Signaling); total Erk1/2 Ab (catalog no.: 9102S; Cell Signaling); SHP2 Ab (catalog no.: A301-544A; lot no.: 1; Bethyl); and GAPDH (14C10) mAb (catalog no.: 2118S; lot no.: 14; Cell Signaling).

Structure (SMILES): O=C(Nc1ccccc1)c1cc(-c2ccc(/C=C3\Sc4ccccc4C3=O)o2)ccc1O [SBI-4668, (Z)-2-Hydroxy-5-(5-((3-oxobenzo[b]thiophen-2(3H)-ylidene)methyl)furan-2-yl)-N-phenylbenzamide]
- inhibitor:protein adduct formation (mass spectrometry) (SHP2cat): no adduct formation
- p-ERK1/2 levels, MOLM-13, 3 h ([1]; 3 h): dose-dependently inhibits ERK1/2 activation
- p-ERK1/2 levels, MOLM-13, 24 h ([1]; 24 h): dose-dependently inhibits ERK1/2 activation
